The target in test [1] is T1, 5-hydroxytryptamine receptor 4 (Homo sapiens, UniProt Q13639). The test is described as follows: Binding affinity against 5-Hydroxytryptamine 4 receptor.
Test [2] addresses T2, Muscarinic acetylcholine receptor M1 (Homo sapiens, UniProt P11229).
T2 sequence (P11229 whole entry): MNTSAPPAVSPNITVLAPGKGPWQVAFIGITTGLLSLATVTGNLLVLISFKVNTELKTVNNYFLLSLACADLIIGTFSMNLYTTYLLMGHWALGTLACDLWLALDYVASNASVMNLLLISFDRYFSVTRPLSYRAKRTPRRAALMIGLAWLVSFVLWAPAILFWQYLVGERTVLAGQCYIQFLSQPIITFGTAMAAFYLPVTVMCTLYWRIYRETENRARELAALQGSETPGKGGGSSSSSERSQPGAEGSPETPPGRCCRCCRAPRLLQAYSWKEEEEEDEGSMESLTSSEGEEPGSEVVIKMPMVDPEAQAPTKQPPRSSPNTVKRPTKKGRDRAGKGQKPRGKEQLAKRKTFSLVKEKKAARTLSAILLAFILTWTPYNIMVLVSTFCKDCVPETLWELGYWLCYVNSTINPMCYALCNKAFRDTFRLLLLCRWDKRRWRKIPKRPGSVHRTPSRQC
The test is described as follows: Binding affinity against Muscarinic M1 receptor.

The target of test [3] is T3, 5-hydroxytryptamine receptor 2C (Homo sapiens, UniProt P28335).
T3 sequence (P28335 whole entry): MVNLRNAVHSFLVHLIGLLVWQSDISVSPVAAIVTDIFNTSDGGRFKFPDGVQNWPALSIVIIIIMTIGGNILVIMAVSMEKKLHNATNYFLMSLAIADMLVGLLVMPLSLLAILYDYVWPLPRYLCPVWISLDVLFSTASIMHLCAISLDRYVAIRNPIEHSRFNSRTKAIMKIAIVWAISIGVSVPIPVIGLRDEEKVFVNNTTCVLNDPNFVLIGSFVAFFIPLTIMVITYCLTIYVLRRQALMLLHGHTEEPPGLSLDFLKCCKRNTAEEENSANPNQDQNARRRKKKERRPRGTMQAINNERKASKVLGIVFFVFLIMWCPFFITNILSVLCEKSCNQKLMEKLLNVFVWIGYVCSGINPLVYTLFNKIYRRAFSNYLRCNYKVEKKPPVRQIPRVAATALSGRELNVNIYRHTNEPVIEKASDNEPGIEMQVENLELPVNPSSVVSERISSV
Nature of the test: Binding affinity against 5-hydroxytryptamine 2C receptor.

The target of test [4] is T4, Serotonin 3 (5-HT3) receptor (Rattus norvegicus, UniProt P35563+Q9JJ16).
T4 sequence (P35563 whole entry): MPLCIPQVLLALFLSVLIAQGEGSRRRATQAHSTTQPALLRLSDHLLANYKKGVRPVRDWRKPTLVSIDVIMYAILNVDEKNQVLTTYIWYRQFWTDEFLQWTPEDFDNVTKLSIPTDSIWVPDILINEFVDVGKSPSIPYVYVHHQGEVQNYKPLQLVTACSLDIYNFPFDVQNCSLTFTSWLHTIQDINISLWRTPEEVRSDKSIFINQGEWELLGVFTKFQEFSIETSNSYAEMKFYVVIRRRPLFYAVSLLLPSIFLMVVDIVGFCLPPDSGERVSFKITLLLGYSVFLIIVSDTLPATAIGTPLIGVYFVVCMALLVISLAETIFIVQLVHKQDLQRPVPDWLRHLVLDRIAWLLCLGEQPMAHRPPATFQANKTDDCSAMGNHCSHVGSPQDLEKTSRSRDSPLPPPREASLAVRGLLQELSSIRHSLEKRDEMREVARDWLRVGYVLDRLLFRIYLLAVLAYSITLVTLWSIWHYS
T4 sequence (Q9JJ16 whole entry): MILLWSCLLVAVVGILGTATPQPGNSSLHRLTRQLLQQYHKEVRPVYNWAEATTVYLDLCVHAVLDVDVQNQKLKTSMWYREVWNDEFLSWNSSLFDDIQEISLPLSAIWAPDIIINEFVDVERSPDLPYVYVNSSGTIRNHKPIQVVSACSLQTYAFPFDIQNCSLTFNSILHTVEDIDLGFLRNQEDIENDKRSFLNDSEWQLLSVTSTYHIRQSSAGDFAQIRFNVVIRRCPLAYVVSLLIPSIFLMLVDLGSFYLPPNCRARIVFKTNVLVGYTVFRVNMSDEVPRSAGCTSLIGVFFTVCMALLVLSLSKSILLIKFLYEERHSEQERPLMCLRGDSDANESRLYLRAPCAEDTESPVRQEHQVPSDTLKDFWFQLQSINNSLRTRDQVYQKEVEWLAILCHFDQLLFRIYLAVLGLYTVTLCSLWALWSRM
The test is described as follows: Binding affinity against 5-Hydroxytryptamine 3 receptor. It counts as protein-complex assay.

Test [5] concerns the target T5, Muscarinic acetylcholine receptor M2 (Homo sapiens, UniProt P08172).
T5 sequence (P08172 whole entry): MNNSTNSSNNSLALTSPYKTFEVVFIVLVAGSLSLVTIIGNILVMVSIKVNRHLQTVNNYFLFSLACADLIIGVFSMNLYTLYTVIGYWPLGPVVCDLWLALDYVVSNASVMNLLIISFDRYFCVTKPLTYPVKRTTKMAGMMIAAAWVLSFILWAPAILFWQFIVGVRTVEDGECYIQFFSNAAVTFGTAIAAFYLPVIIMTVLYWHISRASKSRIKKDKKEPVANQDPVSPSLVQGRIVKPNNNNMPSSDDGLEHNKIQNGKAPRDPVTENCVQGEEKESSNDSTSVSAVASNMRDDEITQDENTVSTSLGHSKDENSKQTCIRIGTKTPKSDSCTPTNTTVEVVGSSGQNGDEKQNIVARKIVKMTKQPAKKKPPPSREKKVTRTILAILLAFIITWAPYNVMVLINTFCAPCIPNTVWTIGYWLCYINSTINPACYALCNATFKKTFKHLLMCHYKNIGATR
The test is described as follows: Binding affinity against Muscarinic M2 receptor.

For test [6], the species on record is Rattus norvegicus. Nature of the test: Tested for maximum response in depolarization of isolated rat vagus nerve measured at dose 10 uM. It counts as functional.
For test [7], the target named is T1, 5-hydroxytryptamine receptor 4. Nature of the test: Binding affinity against 5-hydroxytryptamine 4 receptor.
For test [8], the species on record is Rattus norvegicus. Nature of the test: Tested for maximum response in depolarization of isolated rat vagus nerve measured at dose 1 uM. It counts as functional.
The target of test [9] is T6, Muscarinic acetylcholine receptor M4 (Homo sapiens, UniProt P08173).
T6 sequence (P08173 whole entry): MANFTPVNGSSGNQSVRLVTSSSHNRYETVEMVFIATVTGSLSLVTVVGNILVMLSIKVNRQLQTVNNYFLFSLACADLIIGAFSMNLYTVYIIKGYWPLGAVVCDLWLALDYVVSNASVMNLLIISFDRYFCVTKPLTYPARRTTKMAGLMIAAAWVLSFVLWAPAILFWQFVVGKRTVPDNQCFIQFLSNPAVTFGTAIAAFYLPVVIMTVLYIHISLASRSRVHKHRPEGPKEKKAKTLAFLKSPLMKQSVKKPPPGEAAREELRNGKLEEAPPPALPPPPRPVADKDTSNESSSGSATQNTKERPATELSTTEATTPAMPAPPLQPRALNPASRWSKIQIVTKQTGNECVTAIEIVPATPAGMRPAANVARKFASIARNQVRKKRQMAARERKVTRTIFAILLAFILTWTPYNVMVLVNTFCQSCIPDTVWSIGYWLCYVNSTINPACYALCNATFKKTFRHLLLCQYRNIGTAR
The test is described as follows: Binding affinity against Muscarinic acetylcholine receptor M4.

T1 sequence (Q13639 whole entry): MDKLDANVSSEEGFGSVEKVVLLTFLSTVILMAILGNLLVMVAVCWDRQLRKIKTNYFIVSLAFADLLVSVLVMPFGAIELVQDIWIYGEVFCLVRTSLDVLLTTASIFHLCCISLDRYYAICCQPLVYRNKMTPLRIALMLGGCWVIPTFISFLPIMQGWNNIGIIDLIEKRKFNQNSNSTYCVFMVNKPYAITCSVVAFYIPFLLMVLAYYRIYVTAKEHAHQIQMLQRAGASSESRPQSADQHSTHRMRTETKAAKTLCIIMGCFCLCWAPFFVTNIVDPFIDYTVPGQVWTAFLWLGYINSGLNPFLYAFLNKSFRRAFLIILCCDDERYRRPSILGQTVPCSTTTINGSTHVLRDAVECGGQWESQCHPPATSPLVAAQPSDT

By Ki is commonly meant a measure of affinity in units of concentration, obtained from inhibition or displacement. High values mean a looser hold on the target, low ones a stronger hold on the target. Consider `Cn1cc(C(=O)C(=O)N[C@@H]2CN3CCC2CC3)c2ccccc21`, for which the Ki in [1] was 0.398 µM; in test [2], 25.1 µM; in test [3] it was 12.6 µM; in test [4] it was 0.0126 µM; in test [5], 50.1 µM. In test [6], this molecule returned a Max response of 167 uV.

For the molecule `Cn1cc(C(=O)C(=O)N[C@H]2CN3CCC2CC3)c2ccccc21`, the Ki in test [7] was 0.251 µM; in test [2] it was 10 µM; in [3], 15.8 µM; in test [4], 0.000251 µM; in test [5] it was 50.1 µM; in test [9], 25.1 µM. Moreover, in [8], the Max response is 140 uV.
